Columns and labels:
[1] = target: hM3Dq (Homo sapiens, UniProt P20309, A239G/Y149C); assay: Rotation behavior and nigral c-Fos in mice after unilateral nigral AAV8R12-G88P3-HA-hM3Dq and CNO; type: in vivo, C57BL/6J mice; design: host or cells: AAV8R12-transduced neurons (striatal D1-MSNs, some SNr neurons) of mice and macaques; conditions: for rotation behavior (FIG. 6C): control vector AAV8R12-G88P3-EYFP, n=5
Procedure: Mice were anesthetized with sodium pentobarbital (Nembutal; 80 mg/kg, i.p.), and then placed into a stereotaxic device (KOPF). Eye cream was applied on both corneas to avoid dehydration. The skull above the targeted areas was thinned with a dental drill and carefully removed. Injections were conducted with a 10 μL syringe connected to a 33-Gauge needle (Neuros; Hamilton), using a microsyringe pump (Legato 130, KD Scientific). A total volume of 200 nL virus was injected into the SNr at a speed of 20 nL/min. The coordinates for the SNr were 3.4 mm posterior, 1.3 mm lateral, 4.8 mm ventral to the bregma.
Mice that were used in the behavioral experiments were then implanted with guide cannulas (KOPF) unilaterally aiming at the dorsomedial striatum (0.5 mm anterior, 1.5 mm lateral, 3.5 mm ventral to the bregma). The cannulas were fixed to the skull with dental cement. Stainless steel obturators were inserted into the guide cannulas and were replaced every other day to maintain the patency until infusions were made. Mice were allowed to recover from the surgery for at least 3 weeks before further studies.
Mice were individually handled for 10-20 seconds per day for at least 5 days to habituate them to the experimenter. The open field test was conducted in a test apparatus (50 cm×50 cm×50 cm) with an HD digital camera (Sony) positioned above the arena. On day one, mice were habituated to the apparatus for 10 minutes. On day 2, mice were administrated saline (0.1 mL i.p. or 200 nL intracranially [i.e.] through the guide cannulas). On day 3, mice were administrated with Clozapine-N-oxide (CNO, Hello Bio, HB1807; 0.3 mg/kg i.p. or 200 nL at 100 μM i.e.). All behavioral tests were conducted 30 minutes after injection. During the test, mice were allowed to freely explore the apparatus for 10 minutes. The behavioral data were analyzed with ANY-maze software (Stoelting Co.).

[2] = target: T1, rM3Ds (Rattus norvegicus, UniProt P08483, A177S/A238G/A489L/DEL261-437/DEL441-478/E258S/I253V/I483M/INS256[…]/K178L/K182A/K255R/K484R/K486H/L173F/L482A/M480V/R171S/R176Q/R179M/S481M/T174R/T181R/T257A/Y148C); assay: 6-OHDA parkinsonian mouse model: open field and rotarod; type: in vivo, C57/BL6 mice; design: rM3Ds; 2A-EYFP (C); host or cells: AAV8R12-transduced striatal D1-MSNs of mice and cynomolgus macaques (in vivo and acute slices); conditions: AAV8R12-G88P7-rM3Ds-2A-EYFP, 6-OHDA mice
T1 sequence (P08483 with tags, fused parts or gaps Y148C/R171S/L173F/T174R/R176Q/A177S/K178L/R179M/T181R/K182A/A238G/I253V/K255R/INS256[…]/T257A/E258S/DEL261-437/DEL441-478/M480V/S481M/L482A/I483M/K484R/K486H/A489L): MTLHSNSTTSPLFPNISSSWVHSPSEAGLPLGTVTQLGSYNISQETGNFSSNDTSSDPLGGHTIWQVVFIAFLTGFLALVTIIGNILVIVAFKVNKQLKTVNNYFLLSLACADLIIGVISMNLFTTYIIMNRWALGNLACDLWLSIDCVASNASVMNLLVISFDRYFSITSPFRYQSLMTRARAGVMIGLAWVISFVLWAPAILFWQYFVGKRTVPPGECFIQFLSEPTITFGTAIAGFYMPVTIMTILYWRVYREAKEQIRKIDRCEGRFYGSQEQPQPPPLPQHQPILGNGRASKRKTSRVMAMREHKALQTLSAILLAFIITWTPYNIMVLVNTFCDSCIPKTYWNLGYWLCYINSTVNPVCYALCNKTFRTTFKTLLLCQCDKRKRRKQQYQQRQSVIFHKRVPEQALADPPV
Procedure: Rodent Parkinson's disease mice models were created through bilateral injection of 6-OHDA using the same methods as described in virus injections (Example 3). A total volume of 1 ul 6-OHDA (5 mg/ml, dissolved in sterile saline containing 0.02% ascorbic acid, Sigma) was injected into the striatum at a speed of 100 nL/min. The coordinates for striatum were 0.5 mm anterior, 1.5 mm lateral, 3.2 mm ventral to the bregma. A premedication of desipramine (25 mg/kg, Sigma) was administered to animals prior to injections of 6-OHDA, in order to increase the selectivity and efficacy of 6-OHDA-induced lesions. Mice were supplemented with DietGel (ClearH2O) for one-week post-surgery. All staining and behavioral experiments were performed at least 14 days following surgery, when the amount of dopamine depletion was maximal and stable.
Mice were individually handled for 10-20 seconds per day for at least 5 days to habituate them to the experimenter. The open field test was conducted in a test apparatus (50 cm×50 cm×50 cm) with an HD digital camera (Sony) positioned above the arena. On day one, mice were habituated to the apparatus for 10 minutes. […] The behavioral data were analyzed with ANY-maze software (Stoelting Co.).
Mice were individually handled as described in the open field test. […] Latency to fall for each trial was automatically recorded by the apparatus. […]

hM3Dq, sequence (P20309 whole entry Y149C/A239G): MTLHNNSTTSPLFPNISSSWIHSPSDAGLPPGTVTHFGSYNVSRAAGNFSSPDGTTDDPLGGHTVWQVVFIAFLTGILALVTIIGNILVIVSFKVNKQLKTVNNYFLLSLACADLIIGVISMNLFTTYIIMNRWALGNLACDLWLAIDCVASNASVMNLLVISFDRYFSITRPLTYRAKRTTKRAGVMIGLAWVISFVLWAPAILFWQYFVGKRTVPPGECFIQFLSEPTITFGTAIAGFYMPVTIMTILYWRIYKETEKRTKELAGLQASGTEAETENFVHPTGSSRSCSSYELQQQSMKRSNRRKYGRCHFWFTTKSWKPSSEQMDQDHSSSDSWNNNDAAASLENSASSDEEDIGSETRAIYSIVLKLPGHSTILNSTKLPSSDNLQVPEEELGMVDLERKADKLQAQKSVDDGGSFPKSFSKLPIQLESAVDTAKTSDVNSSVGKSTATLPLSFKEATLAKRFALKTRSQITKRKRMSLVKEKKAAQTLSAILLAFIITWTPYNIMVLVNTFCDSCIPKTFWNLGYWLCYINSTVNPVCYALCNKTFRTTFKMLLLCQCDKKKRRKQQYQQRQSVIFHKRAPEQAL

C[N+]1([O-])CCN(C2=Nc3cc(Cl)ccc3Nc3ccccc32)CC1 [CNO, clozapine N-oxide]
rotations (FIG. 6A; ipsiversive rotations induced) ([1]; CNO i.p., AAV8R12-G88P3-HA-hM3Dq, n=8 mice, mean±SEM, saline 45.25±4.128): 87.84±4.666 | rotation behavior (FIG. 6C) ([1]; CNO i.p., saline 47.08±10.5): 44.72±10.89 | rotations (FIG. 6A; contraversive rotations induced) ([1]; CNO intracranial into dorsomedial striatum, AAV8R12-G88P3-HA-hM3Dq, n=8, saline 49.63±5.879): 15.08±3.435 | nigral c-Fos+ cells ([1]; CNO intracranial, hM3Dq): No significant changes in the number of nigral c-Fos+ cells | rotation behavior (FIG. 6C) ([1]; CNO intracranial, saline 54.22±8.766): 61.39±5.774 | c-Fos+ cells in the right SNr ([1]; CNO intraperitoneal, hM3Dq): significant increase in c-Fos+ cells | motor skill in rotarod test ([2]; CNO): partially rescued the motor skill deficit | spontaneous movement in an open field ([2]; systemic CNO): drastically reversed the dyskinesia-like phenotype of PD mice

From patent US20250381307A1, “RETRO-AAV AND USE IN TREATING NEURODEGENERATIVE DISEASES” (priority 2023, published 2025)
